According to paper PMC7522027 (Disease Models & Mechanisms, 2020):

Experiments:
[1] = system: BMP6-induced SMAD1/5 phosphorylation; test: BMP6-induced SMAD1/5 phosphorylation in HepG2 cells (immunoblot); format: cell-based, human; settings: HepG2, BMP6 50 ng/ml; higher concentrations
Protocol: For BMP stimulation, the HepG2 cells (∼50% confluency) were starved on serum-free medium for 6 h. Subsequently, prior to the addition of BMP ligands, the cells were treated with compound for 30 min. Next, the cells were stimulated with BMP2 (50 ng/ml) or BMP6 (50 ng/ml) for 45 min. The cells were then washed with PBS and lysed in Laemmli sample buffer for western blot analysis.
HepG2 or HEK 293T cells were lysed in Laemmli sample buffer. Proteins were separated by sodium dodecyl sulfate polyacrylamide gel electrophoresis (SDS-PAGE) and transferred onto […] polyvinylidene difluoride (PVDF) membrane (IPVH00010, Merck Millipore). Membranes were blocked using 5% non-fat dry milk in Tris-buffered saline with 0.1% Tween 20 (655204, Merck Millipore) and probed with the respective primary and secondary antibodies. The signal was detected using Clarity™ Western ECL Substrate (1705060, Bio-Rad) and ChemiDoc Imaging System (17001402, Bio-Rad). The antibodies used for immunoblotting were raised against the following proteins: phospho-SMAD1/5/8 ([Persson et al., 1998]; 1:1000), SMAD1 (Cell Signaling Technology, #6944; 1:1000), GAPDH (Merck Millipore, #G8795; 1:5000) and hemagglutinin (HA; Roche, #12CA5; 1:1000).

ACV-R1B (ALK4) = biological target: T1, ACV-R1B (ALK4) (Homo sapiens, UniProt P36896); test: radiometric protein kinase assay, ALK4; format: biochemical; settings: [ATP] = 1 μM; Fig. 7C
T1 construct: purchased ProQinase GmbH (Freiburg, Germany); host or cells: bacteria (so in the source)
T1 sequence (P36896 24-505): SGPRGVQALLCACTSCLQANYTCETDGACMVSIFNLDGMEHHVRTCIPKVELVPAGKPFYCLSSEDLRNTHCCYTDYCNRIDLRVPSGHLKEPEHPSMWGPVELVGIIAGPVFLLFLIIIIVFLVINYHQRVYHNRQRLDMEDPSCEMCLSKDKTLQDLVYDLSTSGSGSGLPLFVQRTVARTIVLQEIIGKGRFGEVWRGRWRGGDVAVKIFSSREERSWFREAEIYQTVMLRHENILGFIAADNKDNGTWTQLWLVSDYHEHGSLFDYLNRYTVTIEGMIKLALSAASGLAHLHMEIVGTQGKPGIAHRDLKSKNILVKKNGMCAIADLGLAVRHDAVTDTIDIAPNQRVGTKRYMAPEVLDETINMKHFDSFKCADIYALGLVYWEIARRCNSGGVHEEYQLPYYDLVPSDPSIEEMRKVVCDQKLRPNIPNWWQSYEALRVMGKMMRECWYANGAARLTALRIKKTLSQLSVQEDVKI
Protocol: (§1) IC50 values were calculated using Prism 5.04 for Windows (GraphPad, San Diego, CA, USA; www.graphpad.com). The mathematical model used was ‘Sigmoidal response (variable slope)’ with parameters ‘top’ fixed at 100% and ‘bottom’ at 0%. The fitting method used was a least-squares fit.

ACV-RL1 (ALK1) = biological target: T2, ACV-RL1 (ALK1) (Homo sapiens, UniProt P37023); test: radiometric protein kinase assay, ALK1; format: biochemical; settings: [ATP] = 1 μM; Fig. 7D
T2 construct: purchased ProQinase GmbH (Freiburg, Germany); host or cells: bacteria (so in the source)
T2 sequence (P37023 22-503): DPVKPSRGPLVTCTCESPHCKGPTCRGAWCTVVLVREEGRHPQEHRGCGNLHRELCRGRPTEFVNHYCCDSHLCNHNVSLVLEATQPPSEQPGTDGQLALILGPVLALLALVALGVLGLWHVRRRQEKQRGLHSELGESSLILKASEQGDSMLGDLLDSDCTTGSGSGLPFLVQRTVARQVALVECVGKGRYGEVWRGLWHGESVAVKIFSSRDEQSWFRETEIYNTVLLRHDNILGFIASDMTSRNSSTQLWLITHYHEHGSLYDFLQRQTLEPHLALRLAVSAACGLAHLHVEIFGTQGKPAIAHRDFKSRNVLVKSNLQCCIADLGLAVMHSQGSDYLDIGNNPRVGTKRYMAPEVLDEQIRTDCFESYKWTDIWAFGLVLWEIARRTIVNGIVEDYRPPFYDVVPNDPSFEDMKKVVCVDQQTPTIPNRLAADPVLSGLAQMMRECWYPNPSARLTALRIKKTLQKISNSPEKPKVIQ
Protocol: as §1

BMPR1A (ALK3) = biological target: T3, BMPR1A (ALK3) (Homo sapiens, UniProt P36894); test: radiometric protein kinase assay, ALK3; format: biochemical; settings: [ATP] = 0.3μM; Fig. 7F
T3 construct: purchased ProQinase GmbH (Freiburg, Germany); host or cells: bacteria (so in the source)
T3 sequence (P36894 24-532): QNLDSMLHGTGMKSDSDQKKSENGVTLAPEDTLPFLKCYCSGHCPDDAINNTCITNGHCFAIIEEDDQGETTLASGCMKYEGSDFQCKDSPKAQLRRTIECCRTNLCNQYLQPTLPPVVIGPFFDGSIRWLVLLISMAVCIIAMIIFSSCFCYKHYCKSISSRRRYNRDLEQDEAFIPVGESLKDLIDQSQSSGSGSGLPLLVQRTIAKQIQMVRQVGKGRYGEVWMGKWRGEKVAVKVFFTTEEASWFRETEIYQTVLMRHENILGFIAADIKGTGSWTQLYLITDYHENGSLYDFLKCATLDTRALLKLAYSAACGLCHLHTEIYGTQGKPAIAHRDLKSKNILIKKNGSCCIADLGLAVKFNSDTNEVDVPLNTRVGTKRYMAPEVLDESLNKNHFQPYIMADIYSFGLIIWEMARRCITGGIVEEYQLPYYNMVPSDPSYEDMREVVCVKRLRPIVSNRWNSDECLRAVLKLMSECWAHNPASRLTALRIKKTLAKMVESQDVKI
Protocol: as §1

caAlk2 = test: rescue of caAlk2 mRNA-induced developmental defects in zebrafish embryos; format: in vivo; settings: examined at 48 hpf
Protocol: The pCS2+ plasmid encoding caAlk2 with a glutamine to aspartic acid substitution at position 204 was kindly donated by Jeroen Bakkers ([Smith et al., 2009]). The DNA sequences of the inserts in plasmid constructs were verified. Both plasmids were digested with NotI and mRNA was generated with SP6 RNA polymerase using a mMessage mMachine kit (Ambion). The mRNA was purified through phenol/isoamylalcohol/chloroform extraction. Zebrafish embryos were injected into the yolk at the one-cell stage with ∼1 nl of either 50 ng/µl GFP mRNA or a cocktail containing 10 ng/µl caAlk2 and 50 ng/µl GFP mRNA. […] Next, embryos were selected for fluorescence at 24 hpf and examined at 48 hpf. The phenotypes were categorized into three groups: no head; head, no eyes; head and eyes. Finally, the bar graph was generated using Prism 8.3.0 for Windows (GraphPad, San Diego, CA, USA). The presented data are a combination of two repeats of the experiment.

zebrafish embryos = test: zebrafish embryo assay (morphological developmental defects at 48 hpf); format: in vivo, zebrafish (Danio rerio)
Protocol: Zebrafish eggs obtained from family crosses of Tuebingen long fin zebrafish lines were used to assess the biological activity of all samples. The eggs were washed with fresh E3 medium and subsequently divided over 24-well plates, with ten embryos per well in 1000 µl E3 medium. Samples were added to the wells at various times as mentioned in the figures and legends. At 48 hpf, the zebrafish embryos were inspected for morphological developmental defects. Embryos displaying morphological defects were imaged using a Leica MZFLIII microscope equipped with a Leica DFC320 camera or Leica M165 FC microscope equipped with a Leica DMC5400 camera.

[2] = system: BMP2-induced SMAD1/5-dependent BRE-luc transcriptional reporter; test: BMP2-induced BRE-luc transcriptional reporter assay in HepG2 cells; format: cell-based, human; settings: HepG2, BMP2 50 ng/ml; cercosporamide 100 nM to 10 µM, LDN-193189 200 nM
Protocol: For luciferase transcriptional reporter assays, HepG2 cells were seeded in 9-cm plates at ∼60% confluency and transfected with polyethyleneimine (PEI). Twenty-four hours later, the transfected cells were seeded in 24-well plates at ∼60% confluency. Another 24 h later, the cells were serum starved for 6 h. Subsequently the cells were treated with compound or DMSO for 30 min. Thereafter, the cells were stimulated with BMP2 in the presence of compounds (or DMSO) for 16 h (overnight). Subsequently, the cells were washed with PBS and lysed. Luciferase activity was measured using the luciferase reporter assay system from Promega (Leiden, The Netherlands) by a Perkin Elmer luminometer Victor^3 1420. Each DNA transfection mixture was equalized with empty vector when necessary and every experiment was performed in triplicate. β-galactosidase expression construct was co-transfected and β-galactosidase was measured to normalize for differences in transfection efficiency. The BRE-luc reporter construct has been reported previously ([Korchynskyi and ten Dijke, 2002]).

BMPR1B (ALK6) = biological target: T4, BMPR1B (ALK6) (Homo sapiens, UniProt O00238); test: radiometric protein kinase assay, ALK6; format: biochemical; settings: [ATP] = 3 μM; Fig. 7G
T4 construct: purchased ProQinase GmbH (Freiburg, Germany); host or cells: bacteria (so in the source)
T4 sequence (O00238 14-502): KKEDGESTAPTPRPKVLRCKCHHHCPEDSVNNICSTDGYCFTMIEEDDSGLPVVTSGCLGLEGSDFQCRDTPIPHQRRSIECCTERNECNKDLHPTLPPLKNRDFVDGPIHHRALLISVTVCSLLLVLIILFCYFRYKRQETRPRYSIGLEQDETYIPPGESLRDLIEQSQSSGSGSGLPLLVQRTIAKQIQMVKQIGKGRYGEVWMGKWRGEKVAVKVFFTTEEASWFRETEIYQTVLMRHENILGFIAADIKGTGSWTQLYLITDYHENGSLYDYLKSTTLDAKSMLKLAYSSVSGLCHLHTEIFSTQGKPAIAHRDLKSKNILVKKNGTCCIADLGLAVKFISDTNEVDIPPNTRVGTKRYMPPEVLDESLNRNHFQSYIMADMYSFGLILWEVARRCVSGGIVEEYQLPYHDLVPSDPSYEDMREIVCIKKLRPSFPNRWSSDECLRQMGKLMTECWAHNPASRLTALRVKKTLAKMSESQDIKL
Protocol: as §1

CC(=O)C1=C(O)C=C2Oc3c(C(N)=O)c(O)cc(O)c3[C@]2(C)C1=O [cercosporamide, Cercosporamide]
effect on BMP6-induced SMAD1/5 phosphorylation [1]: only minor inhibition | IC50 (ACV-R1B (ALK4)): 0.15 µM | IC50 (ACV-RL1 (ALK1)): 3.3 µM | IC50 (BMPR1A (ALK3)): 0.36 µM | caAlk2-injected embryos that developed a head with eyes (caAlk2; 100 nM from 2 hpf onwards): 58% | caAlk2-injected embryos that developed a head with eyes (caAlk2; 200 nM from 2 hpf onwards): 86% | phenotype, combination treatment (zebrafish embryos; 50 nM cercosporamide in combination with 5 µM LDN-193189, from 7 hpf onwards): partial loss of the ventral fin | developmental defects, single treatment (zebrafish embryos; 50 nM, from 7 hpf onwards): did not induce detectable developmental defects | phenotype at 48 hpf (zebrafish embryos; 100 nM, treatment from 7 hpf): abolished the effect | phenotype at 48 hpf (zebrafish embryos; 200 nM, treatment started at 2 hpf): severely truncated phenotype | phenotype at 48 hpf (zebrafish embryos; 200 nM, treatment started at 8 hpf): mild phenotype | phenotype at 48 hpf (zebrafish embryos; 1.5 µM, treatment from 7 hpf): severely truncated phenotype | phenotype at 48 hpf (zebrafish embryos; 3 µM, treatment from 7 hpf): severely truncated phenotype | lethal concentration in zebrafish embryos (zebrafish embryos; treatment from 7 hpf, continuous until 48 hpf): above 3 µM | effect on BMP2-induced BRE-luc activity [2]: inhibited the BMP2-induced response in a dose-dependent manner | IC50 (BMPR1B (ALK6)): 0.39 µM
